# Assay results reported in US6548472B1, “Liquid cleaning compositions comprising 2-bromo-2-nitro-1,3 propanediol” (Colgate-Palmolive Co., priority 2001, dated 2003).
# Test system: mixture of bacteria
# Experiment: D-value method test (rapid preservation screening, bacteria growth detection time by conductometry)
# Assay type: cell-based
# Conditions: FIG. 1; sodium gluconate (formula B) compared with Na4EDTA (formula A, reference)
# Description: This D-value method test is used for rapid screening. It compares the new product to a reference which gives satisfactory result in real life conditions and which must have a formula composition as close as possible to the tested product (in this example EDTA has been replaced by sodium gluconate). The tested product and the reference are inoculated by a mixture of bacteria. Once they have been inoculated the bacteria slowly disappear due to the beneficial influence of the preservative system. The longer the contact time, the lower the residual bacteria number. The better the preservation system, the lower the residual bacteria number at a given time. The inocculated products are then sampled at different times and the samples are diluted by a nutriant which helps bacteria proliferation. The time needed to detect bacteria in the diluted sample is then measured by conductometry (bacteria growth generally leads to a increase of conductivity). The longer the detection time in sample diluted by nutrient, the lower the residual alive bacteria number after sampling, the better the preservative system.
structure (smiles),measurement,value
O=C([O-])[C@H](O)[C@@H](O)[C@H](O)[C@H](O)CO.[Na+] [sodium gluconate],D bacteria values: Myacid BT potentiator performance,superior Myacid BT potentiator
